Assay [1] deals with anti-CD3 stimulated T cells. The assay can be described thus: Proliferation of anti-CD3 activated T cells with 4YSyn or N-4YSyn. The assay is classed as cell-based, mouse. The settings on record: 1, 3, 10 and 30 μg/ml. The protocol: For proliferation analyses, purified T cells from naive B6 mice were plated with SPC irradiated at 3000 rad (1:3) at 2×10^6 cells/ml in complete RPMI tissue culture media and activated with anti-CD3 (0.5 μg/ml, 145-2C11; BD Pharmingen) in U-bottom 96-well tissue culture plates. Graded concentrations of 4YSyn or N-4YSyn were added to quadruplicate wells. After activation for 3 days, ^3H-thymidine incorporation was performed as described previously.

In a further assay the test system is SPC (spleen cells). In words: Antigen-specific 3H-thymidine proliferation of SPC from immunized mice. The settings on record: B10.BR mice immunized in CFA/IFA. The class given is cell-based, mouse.
The subject of assay [2] is anti-CD3 stimulated T cells. In words: PI uptake cytotoxicity of anti-CD3 stimulated T cells (flow cytometry). The assay is classed as cell-based, mouse. The settings on record: 24 hours. The protocol:
To assess α-Syn-mediated cytotoxicity, purified T cells were stimulated with anti-CD3 and cultured at a density of 1×10^6 cells/ml for 24 hours in media alone or in the presence of 4YSyn or N-4YSyn at concentrations of 1, 3, 10, or 30 μg/ml. Cells were stained with PI, washed and the percentages of PI^+ dead cells and MFI were analyzed by flow cytometry.

The next assay concerns primary microglia. In words: Flow cytometry of active caspase-3 and cathepsin B (CB) in microglia. The assay is classed as cell-based, mouse. The settings on record: N-α-syn-stimulated cultures. The protocol:
Samples from cell fractions were labeled with fluorescently labeled Abs to CD4, CD8, CD25, CTLA-4, CD62L, Fas ligand (FasL), Fas (APO-1), CD1 b, and intracellular FoxP3 (eBioscience) and active caspase-3 (Abcam) and analyzed with a FACSCalibur flow cytometer (BD Biosciences). FITC-latex beads ([…], 2.5% solids; Sigma-Aldrich) were added to microglial cultures for 30 minutes. Microglia were then detached and acid-washed (PBS, pH 6.0) to quench fluorescence of nonphagocytosed beads, and cells were analyzed by flow cytometry and gated to CD11b+ cells. Fluorescence intensity was normalized to beads alone.
Apoptotic cells were detected using the TACS TdT Fluorescein In Situ Apoptosis Detection kit (R&D Systems) according to the manufacturer's protocol and were visualized by a fluorescent microscope. MFI of TUNEL+ cells was determined per field using ImageJ and was normalized to DAPI-stained nuclei (n=3, six fields per well). Caspase activity was determined using the SensoLyte Homogeneous Rh110 Caspase-3/7 Assay kit (AnaSpec) according to the manufacturer's protocol. Cell viability was determined by 3-(4,5-dimethylthiazol-2-yl)-2,5-diphenyl tetrazolium bromide (MTT) activity as described previously. Functional grade Abs to mouse FasL (2 μg/ml; eBioscience) and Fas (5 μg/ml; BD PharMingen) and CA074ME (BIOMOL) were used.
(Flow cytometry measures light scatter and fluorescence of single cells or particles in a stream.)

For a further assay, the system named is MES23.5 cells. The assay can be described thus: Cathepsin B inhibition and neurotoxicity, microglial supernatants on MES23.5 cells. The class given is cell-based. Particulars: inhibitor 1 μM, N-α-syn 100 nM. As to the method: MES 23.5 cells were cultured in 75-cm^2 flasks in DMEM/F12 with 15 mM HEPES (Invitrogen) containing N2 supplement (Invitrogen), 100 U/ml of penicillin, 100 μg/ml streptomycin, and 5% FBS. MES23.5 cells is a cell line derived using somatic cell fusion of rat embryonic mesencephalon cells and the murine neuroblastoma-glioma cell line N18TG2 that produce dopamine and express tyrosine hydroxylase (Crawford et al. (1992) J. Neuroscience 12:3392-3398). Cells were grown to 80% confluence then plated at a density of 10×10^4 cells on sterile glass coverslips. Microglia were plated in 6 well plates and incubated for 1 hour with or without 1 μM of cathepsin B inhibitors, CA-074 [cell impermeable] or CA-074 Me [cell permeable] (Sigma), in a 37° C., 5% CO2 incubator to inhibit residual cathepsin B expression (Gan et al. (2004) J. Biol. Chem., 279:5565-5572). […] MES 23.5 cell viability was assessed using the Live/Dead cytotoxicity assay (Invitrogen) as previously described. Live cells were distinguished by the uptake of calcein AM to acquire a green fluorescence [excitation/emission (ex/em) 495/515 nm], while dead cells acquired a red fluorescence (ex/em 495/635 nm) due to the uptake of ethidium homodimer-1 (EthD-1). Cell enumerations were performed using fluorescence microscopy (200× magnification, n=6 wells per group, 3 frames per well).

A further assay has as its system MPTP-intoxicated B6 mice. In words: Adoptive transfer of immune SPC to MPTP-treated B6 mice. The assay is classed as in vivo, mouse. The settings on record: day 7.
The test system of assay [3] is MPTP-intoxicated mice. In words: Adoptive transfer of polarized N-4YSyn CD4+ T cell subsets to MPTP-intoxicated mice. The class given is in vivo, mouse. The settings on record: 7 days after MPTP. As to the method:
(§1) Recombinant C-terminal tail of α-syn (4YSyn) was purified, nitrated (N-4YSyn), and tested for endotoxin as described. Male C57BL/6J mice and FoxP3-GFP knock in C57BL/6J mice (5 weeks old, The Jackson Laboratory) were immunized with N-4YSyn emulsified in adjuvant as described. […] Recipient mice received four i.p. injections at 2 hour intervals of either vehicle (PBS, 10 mL/kg bodyweight) or MPTP-HCl (16 mg MPTP/kg bodyweight of free base in PBS; Sigma-Aldrich). Twelve hours after the last injection, MPTP-intoxicated mice received adoptive transfers of whole SPC, Treg or no cells (n=5-7 mice per group per time point). On days 2 and 7 post-MPTP, mice were sacrificed and brains were processed for analysis. […] MPTP safety measures were in accordance with published guidelines (Przedborski et al. (2001) J. Neurochem., 76:1265-1274).
CD4+ T cells were isolated from N-4YSyn immunized donors and cultured 1×10^6/ml CD4+ T cells with 2×10^6/ml irradiated SPC and […] N-4YSyn in 20 ml of complete RPMI 1640 supplemented with 10% FBS, 2 mM L-glutamine, 10 mM HEPES, 55 μm 2-mercaptoethanol, 100 units/ml penicillin, and 100 μg/ml streptomycin in T25 flasks. […]
Mice were transcardially-perfused with PBS followed by 4% paraformaldehyde (PFA, Sigma). […] Fluorojade C staining (Millipore) was performed on adjacent sections according to manufacturer's protocol to assess degenerating neurons and quantified using ImageJ. Overall dopaminergic neuron survival was assessed seven days following MPTP intoxication and resolution of cell death processes with polyclonal antibody to mouse Tyrosine hydroxylase (TH), 1:1000 (Calbiochem) and counterstained for Nissl substance by thionin staining (Tieu et al. (2003) J. Clin. Invest., 112:892-901) as previously described (Benner et al. (2004) Proc. Natl. Acad. Sci., 101:9435-9440). […] Quantitation of striatal TH (1:500; Calbiochem) was performed by densitometric analysis as described (Benner et al. (2004) Proc. Natl. Acad. Sci., 101:9435-9440). […]

For assay [4], the system named is MPTP-intoxicated B10.BR mice. In words: Adoptive transfer of immune SPC or T cells to MPTP-treated B10.BR mice. The assay is classed as in vivo, mouse.
Another assay concerns TH+ neurons in the SN. In words: Chronic MPTP intoxication, TH+ neuron counts in SN of WT and SCID mice. The class given is in vivo, mouse. As to the method: For chronic intoxication, B6 mice received 5 intraperitoneal (i.p.) injections at 24 hour intervals for 5 days of either vehicle (PBS, 10 ml/kg) or MPTP-HCl (30 mg/kg of free base in PBS) (Sigma-Aldrich, St. Louis, Mo.). For acute intoxication, mice received 4 i.p. injections, one every 2 hours, of either vehicle (PBS, 10 ml/kg) or MPTP-HCl (18 mg/kg of free base in PBS for B10.BR mice, 14 or 18 mg/kg for B6 mice). At selected time points following MPTP intoxication, mice were sacrificed and brains processed for subsequent analyses. MPTP handling and safety measures were in accordance with published guidelines (Przedborski et al. (2001) J. Neurochem., 76:1265-1274).
At the time points indicated following MPTP intoxication, mice were transcardially perfused with 4% paraformaldehyde (PFA) in 0.1 M PBS using 0.9% saline as vascular rinse. Brains were post-fixed in 4% PFA overnight, kept in 30% sucrose for 2 days, snap frozen, embedded in OCT compound, and […] sections cut on a cryostat (CM1900, Leica, Bannockburn, Ill.). The sections were collected in PBS and processed free-floating. […] Fluoro-Jade C (Chemicon International, Inc., Temecula, Calif.) was used to stain degenerating neurons (Schmued et al. (2005) Brain Res., 1035:24-31) and was detected as green fluorescence by fluorescence microscopy with FITC filter (Eclipse E800, Nikon, Inc., Melville, N.Y.). […]

In assay [5] the test system is MPTP-intoxicated mice. In words: Adoptive transfer of N-4YSyn and VIP SPC or Treg to MPTP-intoxicated mice (Example 6). The assay is classed as in vivo, mouse. The protocol:
as §1
Seven days following treatment, mice were sacrificed and single cell suspensions were prepared from inguinal lymph nodes and spleens. CD4+ T cell populations from spleens and lymph nodes were enriched by negative selection with CD4-enrichment columns (R & D Systems) followed by CD25-PE positive selection with AutoMACS (Miltenyi Biotec). […] Proliferation and inhibition assays were performed as described. MPTP-intoxicated mice received an i.v. tail injection of 5×10^7 SPC or 1×10^6 Treg in 0.25 ml of HBSS.
Mice were transcardially-perfused with PBS followed by 4% paraformaldehyde (PFA, Sigma). Frozen midbrain sections (30 μm) were immunostained for Mac-1 (CD11b, 1:1000; Serotec). Fluorojade C staining (Millipore) was performed on adjacent sections according to manufacturer's protocol to assess degenerating neurons and quantified using ImageJ. Overall dopaminergic neuron survival was assessed seven days following MPTP intoxication and resolution of cell death processes with polyclonal antibody to mouse Tyrosine hydroxylase (TH), 1:1000 (Calbiochem) and counterstained for Nissl substance by thionin staining (Tieu et al. (2003) J. Clin. Invest., 112:892-901) as previously described (Benner et al. (2004) Proc. Natl. Acad. Sci., 101:9435-9440). Total numbers of Mac-1^+ cells, […] and Nissl-stained neurons in the SNpc were estimated by stereological analysis with StereoInvestigator software (MicroBrightfield) using the optical fractionator module (Liberatore et al. (1999) Nat. Med., 5:1403-1409). Quantitation of striatal TH (1:500; Calbiochem) was performed by densitometric analysis as described (Benner et al. (2004) Proc. Natl. Acad. Sci., 101:9435-9440). Adjacent midbrain sections were immunostained for CD4 (L3T4; 1:200, BD Pharmingen). Sections were incubated in streptavidin-horseradish peroxidase (HRP) solution (ABC Elite vector kit, Vector Laboratories), and color developed using a generation system consisting of diaminobenzidine (DAB) chromogen (Sigma-Aldrich) as described (Benner et al. (2004) Proc. Natl. Acad. Sci., 101:9435-9440).

From patent US9782464B2, “Methods and compositions for inhibiting diseases of the central nervous system” (Board of Regents of the University of Nebraska, priority 2008, dated 2017) come the findings set out here.

Regarding “4YSyn: recombinant His-tagged C-terminal 40 aa α-Syn fragment containing all four tyrosine residues, non-nitrated”, in assay [1], the “proliferation of anti-CD3 stimulated T cells” value is listed as “not inhibited”. In addition, the “proliferative response of SPC to in vitro stimulation with the antigen” value with SPC (spleen cells) is listed as “no significant immune responses”. The “% PI+ T cells” value in assay [2] (1 μg/ml) turned out to be 4.9%; in [2] (3 μg/ml), 6%; in assay [2] (10 μg/ml) it was 4.7%; in assay [2] (30 μg/ml), 4.2%. Moreover, the “MFI of PI-stained T cells” value in assay [2] (1 μg/ml) turned out to be 32.3; in [2] (3 μg/ml), 34.1; in assay [2] (10 μg/ml), 25.2; in [2] (30 μg/ml), 26.8.
With `CCCNC(=O)[C@H]1O[C@@H]1C(=O)N[C@H](C(=O)N1CCC[C@H]1C(=O)OC)[C@@H](C)CC` [CA-074 Me], in the assay on primary microglia, the “diminution of active caspase-3+ cells” value came out at 11.1±0.5%. Also, the “protection of DA cells v. N-α-syn alone” value in the assay with MES23.5 cells turned out to be 87%.
For `CN1CC=C(c2ccccc2)CC1` [MPTP, 1-methyl-4-phenyl-1,2,3,6-tetrahydropyridine], in the assay with MPTP-intoxicated B6 mice, the “loss of TH+ nigral neurons compared to PBS-treated controls” value is 43%. In the assay with MPTP-intoxicated mice [3], the “TH density within the striatum” value is reported as 26 % of PBS-treated controls, the “loss of TH+ neurons vs PBS-treated controls” value is listed as 25% and the “total TH+ neurons within the SNpc” value turned out to be 5971±250. The “reduction of SN TH+ neurons compared to PBS controls” value in assay [4] (MPTP-treated B10.BR mice, stereology) is reported as 45%. In assay [4] (SN of MPTP-treated B10.BR mice, mean±SEM), the “Counts of Mac-1+ microglia” value was 27.7±3.2 /mm^2. Further, in the assay on TH+ neurons in the SN (SCID mice), the “numbers of TH+ neurons compared to PBS” value is on record as “No significant difference”. Further, the “reduction in numbers of TH+ neurons in the SN compared to PBS” value in the assay with TH+ neurons in the SN (WT B6 mice, 21 days after last injection) amounted to 33%. For the same molecule, the “increase in numbers of Mac-1+ cells within the SNpc compared with PBS controls” value with MPTP-intoxicated mice [5] (2 days post-MPTP) was “greater than 16 fold”. The “loss of nigral TH+ neurons compared with PBS controls” value in the assay with MPTP-intoxicated mice [5] (7 days after MPTP, FIG. 35C) is 45%. For the same molecule, in the assay on MPTP-intoxicated mice [5] (7 days after MPTP, FIG. 38B), the “reduction of SNpc TH+ neurons compared with PBS controls” value worked out at 48%. Moreover, the “Striatal TH+ density” value in the assay on MPTP-intoxicated mice [5] (7 days after MPTP, FIG. 38C) is given as 16 % of PBS controls. In addition, the “TH+ neuron survival” value with MPTP-intoxicated mice [5] (MPTP mice, FIG. 38D, Treg co-transferred with N-4YSyn SPC) is given as 49%.
